The text below walks through data of ChEMBL document CHEMBL4256943, “Inhibitors of cyp17a1” (2016).

The test is filed under the species Homo sapiens. The test is described as follows: Selectivity factor, ratio of IC50 for human membrane bound C-terminal His4-tagged CYP21A2delta19H mutant to IC50 for human membrane bound C-terminal His4-tagged CYP17A1delta19H mutant.

With `C[C@]12CC[C@H](O)C[C@@H]1/C(=N/O)C[C@@H]1[C@@H]2CC[C@]2(C)C(c3cccnc3)=CC[C@@H]12`, the Ratio IC50 worked out at 68.9.
